Test results: patent US20260207459A1, “SUGARCANE DERIVED SEMI-SYNTHETIC COSMETIC INGREDIENTS, METHODS OF PRODUCTION THEREOF, AND PERSONAL CARE PRODUCTS DERIVED THEREFROM” (AMYRIS, INC., priority 2023, published 2026)

Legend:
[1] = Static contact angle (wetting) on glass / PTFE; format: physicochemical; conditions: for Water contact angle: static contact angle on glass
Experimental: Static water contact angle is another indication of material spreading and wetting.
(§1) Example 9: Wetting on Hydrophobic-PTFE and Hydrophilic-Glass Slide Substrates by Static Contact Angle and Surface Tension by Pendant Drop Shape Analysis
(§2) The wetting values (on hydrophobic-PTFE and on hydrophilic-glass slides) were measured and compared for amodimethicone, LEX FEEL (diheptyl succinate), non-redistilled HDD, distilled HDD, PROTOL (mineral oil), RUDOL (mineral oil), ERVOL (mineral oil), and squalane. […] The lower surface tension of HDD can be translated to better spreading and glide in formulations and position it comparably with mineral oils with similar viscosities and LEX FEEL 350.
(§3) Measurement of surface tension of liquids: A Kruss DSA 100 was employed using the pendant drop method. Prior to the measurement, surface tension of the water was tested as a standard with an expected surface tension of 72 mN/m at 25° C. Then, a drop of the tested liquid was pushed through a 0.514 mm needle of a micro syringe and the surface tension was calculated using inbuilt software. The result of the measurement is an average of at least 3 measurements. Static contact angle measurement (wetting): To measure the contact angle, a Kriss DSA 100 and the sessile drop method were used. A glass substrate was used for the measurements. To measure the contact angle on the substrate, a single drop was deposited onto the substrate from a 0.514 mm needle of a micro syringe. Then, drop shape and contact angle were analyzed using inbuilt software. The result of the measurement was the average of at least 3 measurements. To ensure that the substrate is prepared well, it was cleaned with non-polar hexane, THF, and polar acetone. To ensure that the glass substrate was clean, a drop of water was deposited on its surface. Gloss measurement: To measure the gloss, 2 mL of material was drawn downed on a glass substrate. Then glass was placed over a black matte surface and gloss was measured with a BYK micro-TRI-gloss glossmeter.

[2] = Viscosity (capillary viscometer / rheometer); format: physicochemical; conditions: for Viscosity: at 25° C., ARES G2 rheometer
Experimental: The viscosity, gloss, surface tension, and wetting were also calculated for farnesyl HH-farnesoate (Compound (I-C)) and the results are shown in Table 4. The properties of Table 4 were determined as follows: Measurement of dynamic viscosity using rheometer: Using a ARES G2 rheometer, the viscosity of the samples were measured using 25 mm plate clamps with a gap size about 0.5 mm, strain 1%, frequency range 1-500 rad/s, and a temperature of about 25° C.

[3] = Gloss measurement (glossmeter); format: physicochemical
Experimental: Gloss is a very desirable property in B&PC products. Gloss was measured at 20 deg.
Tested dimethicones have the lowest gloss.
as §3

[4] = Surface tension by pendant drop; format: physicochemical; conditions: for Surface tension: Kruss DSA 100, pendant drop; for surface tension (comparison in words): pendant drop shape analysis, FIG. 4
Experimental: The surface tension of a material in beauty and personal care (B&PC) ingredients accounts for many of the sensory attributes. The lower the surface tension of a material the better is the material's spreadability, slip, glide, and lubricity.
as §1, §2, §3

[5] = In vitro skin permeation, Franz diffusion cell system; format: in vitro ADME, human; conditions: for Total accumulated dose passed through the skin into the reservoir / Total accumulated dose in Dermis / Total accumulated dose in Epidermis: 1.0 wt % in squalane, 5 μl, nominal 90.91 μg/cm^2; for penetration to the dermis compared with THDA: 24 hour time point, cadaver skin; for Total accumulated dose in Dermis / Total accumulated dose in Epidermis: measured at 24 hours
Experimental: The rate and extent of in vitro skin permeation of compounds tetrahexydecyl ascorbate (THDA, shown below), di(hexahydrofarnesyl) ascorbate (Compound (II-A)), tri(hexahydrofarnesyl) ascorbate (Compound (II-B)), and tetra(hexahydrofamesyl) ascorbate (Compound (II-C)) was measured into and through cadaver skin using a Franz diffusion cell system. THDA is a Vitamin C ester commonly used in cosmetic formulations.
Flux was measured over a period of 24 hours after application of the formulations. At the end of the 24 hour study, the skin was washed, tapestripped and split into epidermal and dermal compartments. The compounds were then extracted from the skin compartments and the compound concentration was measured in these compartments along with the receptor fluid aliquots. The formulations were chosen to determine the effect of the formulation composition and compound concentration on the rate of delivery of the compounds into and through the skin. In vitro skin permeation measurements with Franz-type diffusion cells provide data that is informative relative to in vivo performance.
To prepare the formulations, the compounds were weighed in a glass vial into which the squalane was added. The ending solution was then vortexed for 1 minute, followed by sonication for 30 minutes.
Intact human cadaver skin was purchased from Science Care. The skin tissue was dermatomed by the tissue bank to a thickness of some 250-500 μm and shipped frozen on dry ice. Upon receipt of the donor skin, the skin pieces were stored at −20° C. until used. Prior to use, the skin pieces were removed from the freezer and allowed to thaw fully at ambient temperature.
The following equipment was used during the course of the study: • 1.) Diffusion cells. 24 diffusion cells with 3.3 ml receptor volume and a […] receptor fluid exposure surface area. • 2.) Stirring Dry Block Heaters. Reacti-Therm #18823 stirring dry block heaters were used to maintain the receptor fluid at 32±0.5° C. with constant stirring throughout the study. • 3.) The analysis was carried out with an Agilent 1260 HPLC with a G6120 MS detector and a G4212B diode array detector.
After the analytical testing was complete, the samples were analyzed using Chemstation software. The areas under the curve (“AUCs”) of the compound peaks were recorded and converted to jig/ml values using a calibration curve developed from the calibration standards' AUC values and known concentration values. The concentrations were then multiplied by the receptor volume (3.3 mL) and divided by the surface area of the skin exposed to the receptor fluid (0.55 cm^2) for an end cumulative amount in μg/cm^2.
For receptor fluid time points greater than 4 hrs, this μg/cm^2 value was corrected for the sample aliquot volumes which were removed to compensate for the dilution caused by replacing the sample volume with fresh buffer solution. As an example, for the second time point at 8 hrs, the dilution factor (300 μl aliquot/3.3 ml receptor volume or 1/11) is multiplied by the g/cm^2 value calculated for the 4 hr time point, the result of which is then added to the μg/cm^2 concentration which is calculated using the 8 hr AUC value.
The receptor fluid consisted of phosphate buffered saline at pH 7.4, sourced from Quality Biologicals, with 0.01 wt % NaN3 (added as a preservative), and lwt % Brij 020 (added as a solubilizing agent). The solubility of the compounds in the receptor fluid was determined to be sufficient to maintain sink conditions throughout the study. After mixing the receptor fluid, the receptor fluid was degassed, filtered through a ZapCap CR 0.2 μm membrane under vacuum, and stirred for an additional 20 minutes under vacuum.
Glass FDCs with a 3.3 ml receiver volume and 0.55 cm^2 diffusional area were used. Once the skin was defrosted and washed as described above the FDCs were prepared as follows: • 1. The receptor wells were filled with degassed receptor fluid using a pipette. • 2. […]

**Q.** What does the source list for `CC(C)CCCC(C)CCCC(C)CCOC(=O)CC(C)CCCC(C)CCCC(C)C` (centres unmarked) [Compound (I-C), 3,7,11-trimethyldodecyl 3,7,11-trimethyldodecanoate]?
**A.** Wetting (static contact angle) ([1]; sessile drop on glass substrate): 18.5°; Viscosity [2]: 30 ± 10 cP at 25 °C; Viscosity ([2]; listed as Compound I-C): 30±10 cP; Gloss ([3]; BYK micro-TRI-gloss glossmeter, drawn down on glass): 69.4 ± 2.7; Surface tension [4]: 27.6 ± 0.2 mN/m; Surface tension ([4]; listed as Compound I-C): 27.6±0.2 mN/m

**Q.** With `CC(C)CCCC(C)CCCC(C)CC(=O)OC[C@H](OC(=O)CC(C)CCCC(C)CCCC(C)C)C1OC(=O)C(O)=C1O` (stereo partly drawn) [Compound (II-A), (1S)-1-(3,4-dihydroxy-5-oxo-2,5-dihydrofuran-2-yl)ethane-1,2-diyl bis(3,7,11-trimethyldodecanoate)] as the compound, how does the “Total accumulated dose passed through the skin into the reservoir” value ([5]; 4 hrs) read?
**A.** 0.17 μg/cm^2

**Q.** What about the “Total accumulated dose passed through the skin into the reservoir” value ([5]; 8 hrs) of the same compound?
**A.** 0.18 μg/cm^2

**Q.** What about the “penetration to the dermis compared with THDA” value [5] of the same compound?
**A.** better penetration to the dermis

**Q.** And the “Total accumulated dose passed through the skin into the reservoir” value ([5]; 24 hrs)?
**A.** 0.20 μg/cm^2

**Q.** And the “Total accumulated dose in Dermis” value [5]?
**A.** 0.85 μg/cm^2

**Q.** What about the “Total accumulated dose in Epidermis” value [5] of the same compound?
**A.** 9.28 μg/cm^2

**Q.** Which “Total accumulated dose passed through the skin into the reservoir” value ([5]; 4 hrs) does the source give for `CC(C)CCCC(C)CCCC(C)CC(=O)OC[C@H](OC(=O)CC(C)CCCC(C)CCCC(C)C)C1OC(=O)C(O)=C1OC(=O)CC(C)CCCC(C)CCCC(C)C` (stereo partly drawn) [Compound (II-B), (1S)-1-(4-hydroxy-5-oxo-3-((3,7,11-trimethyldodecanoyl)oxy)-2,5-dihydrofuran-2-yl)ethane-1,2-diyl bis(3,7,11-trimethyldodecanoate)] here?
**A.** 0.00 μg/cm^2

**Q.** What about the “Total accumulated dose passed through the skin into the reservoir” value ([5]; 8 hrs) of the same compound?
**A.** 0.00 μg/cm^2

**Q.** And the “penetration to the dermis compared with THDA” value [5]?
**A.** better penetration to the dermis

**Q.** And the “Total accumulated dose passed through the skin into the reservoir” value ([5]; 24 hrs)?
**A.** 0.00 μg/cm^2

**Q.** What about the “Total accumulated dose in Dermis” value [5] of the same compound?
**A.** 1.37 μg/cm^2

**Q.** What about the “Total accumulated dose in Epidermis” value [5] of the same compound?
**A.** 4.41 μg/cm^2

**Q.** For `CC(C)CCCC(C)CCCC(C)CC(=O)OC[C@H](OC(=O)CC(C)CCCC(C)CCCC(C)C)C1OC(=O)C(OC(=O)CC(C)CCCC(C)CCCC(C)C)=C1OC(=O)CC(C)CCCC(C)CCCC(C)C` (stereo partly drawn) [Compound (II-C), 2-((1S)-1,2-bis((3,7,11-trimethyldodecanoyl)oxy)ethyl)-5-oxo-2,5-dihydrofuran-3,4-diyl bis(3,7,11-trimethyldodecanoate)], which “Total accumulated dose passed through the skin into the reservoir” value ([5]; 4 hrs) is on record?
**A.** 0.05 μg/cm^2

**Q.** What about the “Total accumulated dose passed through the skin into the reservoir” value ([5]; 8 hrs) of the same compound?
**A.** 0.03 μg/cm^2

**Q.** What about the “Total accumulated dose passed through the skin into the reservoir” value ([5]; 24 hrs) of the same compound?
**A.** 0.04 μg/cm^2

**Q.** What about the “Total accumulated dose in Dermis” value [5] of the same compound?
**A.** 0.01 μg/cm^2

**Q.** And the “Total accumulated dose in Epidermis” value [5]?
**A.** 1.02 μg/cm^2

**Q.** For `CC(C)CCCC(C)CCCC(C)CCCCC(C)CCCC(C)CCCC(C)C` (centres unmarked) [Squalane, squalane, reference compound], which Water contact angle [1] is on record?
**A.** 30.9 °

**Q.** What about the “Viscosity @20 C., cP” value [2] of the same compound?
**A.** 23.3 cP

**Q.** What about the “gloss value (comparison in words)” value [3] of the same compound?
**A.** somewhat lower gloss value

**Q.** What about the Gloss ([3]; measured at 20 deg) of the same compound?
**A.** 65.7

**Q.** What about the “Surface tension, mN/m” value [4] of the same compound?
**A.** 26.1 mN/m

**Q.** With `CCCCCCCCC(CCCCCC)C(=O)OCC(OC(=O)C(CCCCCC)CCCCCCCC)C1OC(=O)C(OC(=O)C(CCCCCC)CCCCCCCC)=C1OC(=O)C(CCCCCC)CCCCCCCC` (centres unmarked) [Tetrahexydecyl ascorbate, tetrahexydecyl ascorbate, reference compound] as the compound, how does the “Total accumulated dose passed through the skin into the reservoir” value ([5]; 4 hrs) read?
**A.** 0.00 μg/cm^2

**Q.** And the “Total accumulated dose passed through the skin into the reservoir” value ([5]; 8 hrs)?
**A.** 0.00 μg/cm^2

**Q.** And the “Total accumulated dose passed through the skin into the reservoir” value ([5]; 24 hrs)?
**A.** 0.00 μg/cm^2

**Q.** What about the “Total accumulated dose in Dermis” value [5] of the same compound?
**A.** 0.18 μg/cm^2

**Q.** What about the “Total accumulated dose in Epidermis” value [5] of the same compound?
**A.** 25.78 μg/cm^2

**Q.** Which results are given for “hexahydrofarnesene dimer [HDD Glycotech]”?
**A.** viscosity by rheology [2]: 68.2; surface tension (comparison in words) ([4]; listed as Non-redistilled HDD): highest values of surface tension

**Q.** With hexahydrofarnesene dimer [HDD] as the compound, how does the Water contact angle [1] read?
**A.** 19.8 °

**Q.** And the “Viscosity @20 C., cP” value [2]?
**A.** 61.5 cP

**Q.** And the viscosity by rheology [2]?
**A.** 61.5

**Q.** And the Gloss ([3]; measured at 20 deg)?
**A.** 70.6

**Q.** And the “Surface tension, mN/m” value [4]?
**A.** 24.5 mN/m

**Q.** And the “surface tension (comparison in words)” value ([4]; listed as Distilled HDD)?
**A.** lower surface tension value
